Test results as given in the supplement of paper PMC11451515.

Tests used:
Details in all cases: 48 h
NOMO1 [1] = assay: cell viability relative to DMSO control; higher = less cytotoxic
Procedure, shortened: (§1)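 Cells were incubated for 48 h at 37°C before CellTiter-Glo One luminescence was read. The cells were NOMO1 or SEM (500 cells/well) or P12-Ichikawa (1000 cells/well) leukemia cells, adapted for at least four passages in each medium and seeded in 1536-well plates (5 μl). Dosing used library compounds in DMSO applied by pin over 11 threefold points, 47 μM to 0.79 nM. Viability is the per-plate percentage of DMSO wells, with cell-free wells as background.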

P12-Ichikawa [2] = assay: as above
Procedure, shortened: as §1

SEM cells [3] = assay: as above
Procedure, shortened: as §1

NOMO1 [4] = assay: AUC of viability dose-response curve (% viability x log10 dose units); higher = less sensitive
Procedure, shortened: (§2)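 Leukemia cells adapted to each medium were seeded at 500 or 1000 cells/well in 1536-well plates and dosed with library compounds in DMSO at 11 threefold doses from 47 μM to 0.79 nM for 48 h at 37°C. CellTiter-Glo One luminescence was normalised per plate to DMSO and cell-free wells, then fitted with a four-parameter log-logistic model over log10 doses. Area under the curve was taken from this fit by the trapezoidal rule, with curves above full viability scaled and curves failing quality control removed.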

P12-Ichikawa [5] = assay: as above
Procedure, shortened: as §2

SEM cells [6] = assay: as above
Procedure, shortened: as §2

CC/1=C/N([C@@H]2C[C@@H](O)[C@H](CO)O2)C(=O)NC1=O
cell viability [%]
Details	NOMO1 [1]	P12-Ichikawa [2]	SEM cells [3]
HPLM + 10% dialyzed FBS, 0.000781 µM	97.5	93.7	78.6
HPLM + 10% dialyzed FBS, 0.00234 µM	109	89.4	82
HPLM + 10% dialyzed FBS, 0.00702 µM	89	96.2	71.8
HPLM + 10% dialyzed FBS, 0.0211 µM	104	85.5	94.7
HPLM + 10% dialyzed FBS, 0.0632 µM	102	78.7	74
HPLM + 10% dialyzed FBS, 0.19 µM	101	83.4	75.8
HPLM + 10% dialyzed FBS, 0.569 µM	100	91.7	86.4
HPLM + 10% dialyzed FBS, 1.71 µM	95.1	86.1	84.1
HPLM + 10% dialyzed FBS, 5.12 µM	80.3	73.7	54.1
HPLM + 10% dialyzed FBS, 15.4 µM	92.8	74.2	67.9
HPLM + 10% dialyzed FBS, 46.1 µM	61.2	8.14	30.7
RPMI 5 mM glucose + 10% FBS, 0.000781 µM	84.9	75.2	113
RPMI 5 mM glucose + 10% FBS, 0.00234 µM	85.2	86.7	97.1
RPMI 5 mM glucose + 10% FBS, 0.00702 µM	82	83.5	100
RPMI 5 mM glucose + 10% FBS, 0.0211 µM	83.4	85.8	97.4
RPMI 5 mM glucose + 10% FBS, 0.0632 µM	88.7	65.9	76.5
RPMI 5 mM glucose + 10% FBS, 0.19 µM	99.3	80.7	99.3
RPMI 5 mM glucose + 10% FBS, 0.569 µM	79.7	90.2	115
RPMI 5 mM glucose + 10% FBS, 1.71 µM	88.1	76	95.8
RPMI 5 mM glucose + 10% FBS, 5.12 µM	90.1	62.3	53.2
RPMI 5 mM glucose + 10% FBS, 15.4 µM	83.7	69.5	80.4
RPMI 5 mM glucose + 10% FBS, 46.1 µM	66.4	6.95	38
RPMI 5 mM glucose + 10% dialyzed FBS, 0.000781 µM	80	76.3	81.7
RPMI 5 mM glucose + 10% dialyzed FBS, 0.00234 µM	94	84.6	74.4
RPMI 5 mM glucose + 10% dialyzed FBS, 0.00702 µM	84.6	79.8	76.5
RPMI 5 mM glucose + 10% dialyzed FBS, 0.0211 µM	86.4	75.9	79.2
RPMI 5 mM glucose + 10% dialyzed FBS, 0.0632 µM	98.4	61.6	45.6
RPMI 5 mM glucose + 10% dialyzed FBS, 0.19 µM	87.7	73.3	64.3
RPMI 5 mM glucose + 10% dialyzed FBS, 0.569 µM	92.1	81.8	73.7
RPMI 5 mM glucose + 10% dialyzed FBS, 1.71 µM	85	81	62.3
RPMI 5 mM glucose + 10% dialyzed FBS, 5.12 µM	75.9	61	44.3
RPMI 5 mM glucose + 10% dialyzed FBS, 15.4 µM	94.4	64.3	56.9
RPMI 5 mM glucose + 10% dialyzed FBS, 46.1 µM	62.3	12.2	29.3

AUC of viability dose-response curve
Details	HPLM + 10% dialyzed FBS	RPMI 5 mM glucose + 10% FBS	RPMI 5 mM glucose + 10% dialyzed FBS
NOMO1 [4]	453	408	413
P12-Ichikawa [5]	388	353	338

CCN1CCCC1CNC(=O)c1cc(S(=O)(=O)CC)c(N)cc1OC (stereo unspecified)
AUC of viability dose-response curve
Details	NOMO1 [4]	P12-Ichikawa [5]	SEM cells [6]
HPLM + 10% dialyzed FBS	458	463	474
RPMI 5 mM glucose + 10% FBS	459	461	474
RPMI 5 mM glucose + 10% dialyzed FBS	469	469	453

COCCCOc1cc(C[C@@H](C[C@H](N)[C@@H](O)C[C@H](C(=O)NCC(C)(C)C(N)=O)C(C)C)C(C)C)ccc1OC
AUC of viability dose-response curve
Details	NOMO1 [4]	P12-Ichikawa [5]	SEM cells [6]
HPLM + 10% dialyzed FBS	457	473	473
RPMI 5 mM glucose + 10% FBS	474	471	461
RPMI 5 mM glucose + 10% dialyzed FBS	461	475	458

CNC(=O)c1ccccc1Nc1nc(Nc2ccc(N3CCOCC3)cc2OC)ncc1Cl
AUC of viability dose-response curve
Details	NOMO1 [4]	P12-Ichikawa [5]	SEM cells [6]
HPLM + 10% dialyzed FBS	387	408	349
RPMI 5 mM glucose + 10% FBS	397	404	332
RPMI 5 mM glucose + 10% dialyzed FBS	377	416	337

C=C(C)[C@@H]1CC[C@]2(C)CC[C@]3(C)[C@H](CC[C@@H]4[C@@]5(C)CC[C@H](O)C(C)(C)[C@@H]5CC[C@]43C)[C@@H]12
cell viability [%]
Details	NOMO1 [1]	P12-Ichikawa [2]	SEM cells [3]
HPLM + 10% dialyzed FBS, 0.000781 µM	90.7	108	86.4
HPLM + 10% dialyzed FBS, 0.00234 µM	95.3	115	103
HPLM + 10% dialyzed FBS, 0.00702 µM	104	116	101
HPLM + 10% dialyzed FBS, 0.0211 µM	123	113	91.6
HPLM + 10% dialyzed FBS, 0.0632 µM	115	127	89
HPLM + 10% dialyzed FBS, 0.19 µM	127	134	100
HPLM + 10% dialyzed FBS, 0.569 µM	109	128	11
HPLM + 10% dialyzed FBS, 1.71 µM	119	125	109
HPLM + 10% dialyzed FBS, 5.12 µM	134	126	111
HPLM + 10% dialyzed FBS, 15.4 µM	117	126	123
HPLM + 10% dialyzed FBS, 46.1 µM	131	124	121
RPMI 5 mM glucose + 10% FBS, 0.000781 µM	106	–	97.5
RPMI 5 mM glucose + 10% FBS, 0.00234 µM	111	–	107
RPMI 5 mM glucose + 10% FBS, 0.00702 µM	114	–	112
RPMI 5 mM glucose + 10% FBS, 0.0211 µM	126	–	103
RPMI 5 mM glucose + 10% FBS, 0.0632 µM	121	–	104
RPMI 5 mM glucose + 10% FBS, 0.19 µM	127	–	113
RPMI 5 mM glucose + 10% FBS, 0.569 µM	121	–	10
RPMI 5 mM glucose + 10% FBS, 1.71 µM	115	–	110
RPMI 5 mM glucose + 10% FBS, 5.12 µM	124	–	135
RPMI 5 mM glucose + 10% FBS, 15.4 µM	130	–	126
RPMI 5 mM glucose + 10% FBS, 46.1 µM	115	–	124
RPMI 5 mM glucose + 10% dialyzed FBS, 0.000781 µM	113	104	81.3
RPMI 5 mM glucose + 10% dialyzed FBS, 0.00234 µM	106	119	98.5
RPMI 5 mM glucose + 10% dialyzed FBS, 0.00702 µM	111	102	104
RPMI 5 mM glucose + 10% dialyzed FBS, 0.0211 µM	106	115	99.3
RPMI 5 mM glucose + 10% dialyzed FBS, 0.0632 µM	100	130	102
RPMI 5 mM glucose + 10% dialyzed FBS, 0.19 µM	113	110	108
RPMI 5 mM glucose + 10% dialyzed FBS, 0.569 µM	113	128	8.47
RPMI 5 mM glucose + 10% dialyzed FBS, 1.71 µM	123	126	111
RPMI 5 mM glucose + 10% dialyzed FBS, 5.12 µM	123	124	101
RPMI 5 mM glucose + 10% dialyzed FBS, 15.4 µM	124	119	90.5
RPMI 5 mM glucose + 10% dialyzed FBS, 46.1 µM	115	126	104

AUC of viability dose-response curve
Details	HPLM + 10% dialyzed FBS	RPMI 5 mM glucose + 10% FBS	RPMI 5 mM glucose + 10% dialyzed FBS
NOMO1 [4]	444	466	446
P12-Ichikawa [5]	458	467	459
